Reference: US20110197293A1, “SENSE AND ANTISENSE TRANSCRIPTS OF TRPM2 AND USES THEREOF” (GIOVANNI LAVORGNA, priority 2008, published 2011)

Experiments:
Format in all cases: cell-based, human
Melanoma cells = assay: Apoptosis detection by flow cytometry (Annexin V) after siRNA transfection; conditions: 72 h after transfection
Protocol: Apoptosis was measured after a 72 h transfection with any of the following siRNA: TRPM2-AS—657, TRPM2-AS—734, TRPM2-TE—55 or the non-specific siRNA. Early and late apoptotic cells were assessed by flow cytometry using the Annexin V-Fitc Apoptosis Detection kit (Immunostep, Salamanca, Spain), following manufacturer's instructions. Data acquisition and analysis were done in a FACSort Cytometer (Becton Dickinson, Franklin Lakes, N.J.) using CellQuest and FCS Express software.

TRPM2-AS transcript = assay: qPCR of TRPM2-AS transcript after siRNA transfection in Mel Im cells; conditions: siRNA 10 nM, harvested at 24 hours, respect to mock-transfected cells
Description: (§1) Beta-actin (Exons 5-6) was amplified from cDNAs using the specific primers: LC+hBactin-U 5′-TCCTCCTGGAGAAGAGCTA-3′ (SEQ ID No. 6) and LC+hBactin-L 5′-GGATGCCACAGGACTCCAT-3′ (SEQ ID No. 7) coupled to human Universal Probe Library (UPL) probe number 11 (Roche) resulting in a 124 bp fragment. TRPM2-FL (Exons 20-21) was amplified by RT-PCR from cDNAs using the specific primers: RCH_LONG_TRPM2_U 5′-ACCTCCTCATCGCCATGTT-3′ (SEQ ID No. 8) and RCH_LONG_TRPM2_L 5′-[…]-3′ (SEQ ID No. 9) coupled to human UPL probe number 11, resulting in a 68 bp fragment. TRPM2-AS (Exons 1-2) was amplified by RT-PCR from cDNAs using the specific primers: RCH-asmel-1F 5′-[…]-3′ (SEQ ID No. 10) and RCH-asmel-1R 5′-[…]-3′ (SEQ ID No. 11) coupled to human UPL probe number 57, resulting in a 61 bp fragment. TRPM2-TE was amplified from cDNAs using the primers: UPL-TSS-U 5′-GATGTTTTGGCGGAAGGAC-3′ (SEQ ID No. 12) and UPL-TSS-Rev 5′-CAGGAAGACGTGACGCAAG-3′ (SEQ ID No. 13) coupled to human UPL probe number 6, resulting in a 88 bp intronless fragment. The contribution of genomic DNA contamination to the detected signal was subtracted by running a parallel real-time quantification from a RT-minus reaction, where the RT-enzyme was substituted with water. When RNA was not available to perform the RT-minus control, the contribution of DNA contamination to the detected signal was subtracted by performing a real-time quantification on the same samples, using a couple of primers specific for the Beta-actin promoter: LC-ProBACT-U1 5′-[…]-3′ (SEQ ID No. 14) and LC-ProBACT-L1 5′-[…]-3′ (SEQ ID No. 15) coupled to human UPL probe number 81 (Roche) resulting in a 85 bp fragment. Real time PCR reactions were performed on a LightCycler 480 instrument (Roche), on 96 multiwell plates (Roche) using LightCycler 480 ProbeMaster Mix (Roche) following the manufacturer instructions. Briefly, all reactions were performed in a final 30 μl volume containing 15 μl of 2× MasterMix, 0.6 μl of each primer (20 μmol/L), 0.3 μl of the corresponding UPL probe (10 μmol/L), and 10 μl of template cDNA. Only for TRPM2-AS the reaction was supplemented with 6 μl of 5× Solution-Q (Qiagen) and the cDNA template lowered to 7 μl. The resulting mix was pre-incubated for 10 minutes at 95° C., then amplification reactions were performed by 45 repetitive cycles of denaturing for 10 seconds at 95° C., annealing for 15 seconds at 58° C. and a final extension plus single acquisition step at 72° C. for 1 second. Levels of target gene transcripts were normalized to transcript levels of a reference gene (Beta-actin) and calculated using a relative quantification model with efficiency correction. Amplification efficiency of primer pairs was calculated from serial dilutions of a representative cDNA template over a concentration range of 3 log orders. […]

TRPM2-TE transcript = assay: qPCR of TRPM2-TE transcript after siRNA transfection in Mel Im cells; conditions: siRNA 10 nM, harvested at 24 hours, respect to mock-transfected cells
Description: as §1

[1] = tested on: CpG island located between TRPM2-AS and TRPM2-TE transcripts; assay: De-novo DNA methylation of the CpG island, bisulphite sequencing of clones; conditions: Mel Im cells, liposome-encapsulated oligonucleotides 3 μM final, 24 hours
Protocol: Genomic DNA was isolated and purified with TRIzol reagent (Invitrogen) and quantified with a Nanodrop. Average 100 ng of each DNA sample were subjected to bisulphite modification with the MethylEasy Kit (Human Genetic Signatures) allowing the sulphonation reaction to proceed for no less than 8 hours at 55° C. Following conversion, 3 μl of the modified DNAs were PCR amplified with the primers CpG-8U 5′-[…]-3′ (SEQ ID No. 3) and CpG-8L 5′-[…]-3′ (SEQ ID No. 4) (1 ng/μl each) in the presence of buffer 10× (Qiagen), dNTPs (2 mmol/L), 5× Solution Q (Qiagen), Taq DNA Polymerase (3U), with the reaction conditions being: 1 minute of pre-incubation at 95° C., then amplification reactions were performed by 35 repetitive cycles of denaturing for 1 minute at 95° C., annealing for 2 minutes at 55° C. and extension for 2 minutes at 72° C. A semi-nested PCR reaction was performed in same conditions except for the forward primer changed to CpG-1U 5′-[…]-3′ (SEQ ID No. 5), using 4 μl of the previous 472 bp per product as template. The resulting 370 bp product was then gel-purified, cloned and sequenced using standard procedures.
Three phosphorothioate oligonucleotides were designed in which the cytosines in CpG dinucleotides were replaced by m^5 CpG. […]

Q: Which “level of apoptosis vs. the control siRNA or the mock transfected cells” value (Melanoma cells) does the source give for “5′-CCACUUACUCAUCCAAGAA(dTdT)-3′ [TRPM2-AS—734]” here?
A: The value was “significant increase”.

Q: What about the “knock-down of TRPM2-AS transcript expression” value (TRPM2-AS transcript) of the same substance?
A: Its value is 75%.

Q: What about the “knock-out of TRPM2-TE transcripts/molecules” value (TRPM2-TE transcript) of the same substance?
A: Its value is 70%.

Q: How did the “level of apoptosis vs. the control siRNA or the mock transfected cells” value (Melanoma cells) turn out when “5′-CCAGUAACUCCGCCCAAAU(dTdT)-3′ [TRPM2-AS—657]” was run?
A: Its value is “significant increase”.

Q: And the “knock-down of TRPM2-AS transcript expression” value (TRPM2-AS transcript)?
A: Its value is 69%.

Q: What about the “knock-out of TRPM2-TE transcripts/molecules” value (TRPM2-TE transcript) of the same substance?
A: Its value is 84%.

Q: What does the source list for “5′-AGGUAGUGUAAUCGCCUUG(dTdT)-3′ [non-specific siRNA, reference compound]”?
A: knock-down of TRPM2-AS transcript expression (TRPM2-AS transcript): No significant down-regulation; knock-out of TRPM2-TE transcripts/molecules (TRPM2-TE transcript): No significant down-regulation

Q: Which results are given for “5′-GAAGGACCACAGAGGAAGU(dTdT)-3′ [TRPM2-TE—55]”?
A: level of apoptosis vs. the control siRNA or the mock transfected cells (Melanoma cells): significant increase; knock-down of TRPM2-AS transcript expression (TRPM2-AS transcript): 30%; knock-out of TRPM2-TE transcripts/molecules (TRPM2-TE transcript): 56%

Q: Which “methylation of CpG island clones (5 clones sequenced)” value [1] does the source give for “TCCT^mCGGGCTGCTGAGTTT^mCGC^mCGGCCC (DNA TCCTCGGGCTGCTGAGTTTCGCCGGCCC; 5-methylcytosine modifications, chemistry not fully specified) [MOS]” here?
A: Its value is “non-methylation”.
